The subject of this experiment is phosphorylation of Serine 473 in Akt in MDA-MB-468 human breast adenocarcinoma cells. The experiment is described as follows: In vitro phospho-Ser473 Akt assay (Test (c)). It is filed as cell-based. To be noted: Homo sapiens, MDA-MB-468, 2 h, MDA-MB-468 cells, 2 hours incubation; read-out: Test (c): IC50 versus Serine 473 in Akt. The method in brief:
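MDA-MB-468 cells (15000/well, adhered overnight) treated with compound for 2 h at 37 °C, 5% CO2. After formaldehyde fixation, permeabilisation and blocking, phospho-Akt Ser473 immunostained with Alexafluor488 secondary and quantified by laser-scanning imaging (Acumen Explorer); IC50 from fluorescence dose–response.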
`C[C@H]1COCCN1c1cc(C(C)(C)S(=O)(=O)C2CC2)nc(-c2ccc(NC(=O)NCCO)cc2)n1` [Example 57i, 1-[4-[4-(2-cyclopropylsulfonylpropan-2-yl)-6-[(3S)-3-methylmorpholin-4-yl]pyrimidin-2-yl]phenyl]-3-(2-hydroxyethyl)urea]: the IC50 was 270 nM.
The same measure for `CCNC(=O)Nc1ccc(-c2nc(CS(=O)(=O)C3CC3)cc(N3CCOC[C@@H]3C)n2)cc1` [Example 57j, 1-[4-[4-(cyclopropylsulfonylmethyl)-6-[(3S)-3-methylmorpholin-4-yl]pyrimidin-2-yl]phenyl]-3-ethyl-urea]: 70 nM.
With `CCNC(=O)Nc1ccc(-c2nc(N3CCOC[C@@H]3C)cc(C(C)(C)S(=O)(=O)C3CC3)n2)cc1` [Example 57k, 1-[4-[4-(2-cyclopropylsulfonylpropan-2-yl)-6-[(3S)-3-methylmorpholin-4-yl]pyrimidin-2-yl]phenyl]-3-ethyl-urea], the IC50 was found to be 340 nM.
For `C[C@H]1COCCN1c1cc(CS(=O)(=O)C2CC2)nc(-c2ccc(NC(=O)NC3CCC3)cc2)n1` [Example 57l, 3-cyclobutyl-1-[4-[4-(cyclopropylsulfonylmethyl)-6-[(3S)-3-methylmorpholin-4-yl]pyrimidin-2-yl]phenyl]urea] the value was 88 nM; for `C[C@H]1COCCN1c1cc(CS(=O)(=O)CCO)nc(-c2ccc(NC(=O)NC3CCC3)cc2)n1` [Example 59a, 3-cyclobutyl-1-[4-[4-(2-hydroxyethylsulfonylmethyl)-6-[(3S)-3-methylmorpholin-4-yl]pyrimidin-2-yl]phenyl]urea], 37 nM.
For `CC(C)S(=O)(=O)Cc1cc(N2CCOC[C@@H]2C)nc(-c2ccc(NC(=O)NC3CCC3)cc2)n1` [Example 60, 3-Cyclobutyl-1-[4-[4-[(3S)-3-methylmorpholin-4-yl]-6-(propan-2-ylsulfonylmethyl)pyrimidin-2-yl]phenyl]urea] the value was 1000 nM; for `CCCNC(=O)Nc1ccc(-c2nc(CS(=O)(=O)C(C)C)cc(N3CCOC[C@@H]3C)n2)cc1` [Example 60a, 3-[4-[4-[(3S)-3-methylmorpholin-4-yl]-6-(propan-2-ylsulfonylmethyl)pyrimidin-2-yl]phenyl]-1-propyl-urea], 3300 nM.
The same measure for `CC(C)CNC(=O)Nc1ccc(-c2nc(CS(=O)(=O)C(C)C)cc(N3CCOC[C@@H]3C)n2)cc1` [Example 60b, 1-[4-[4-[(3S)-3-methylmorpholin-4-yl]-6-(propan-2-ylsulfonylmethyl)pyrimidin-2-yl]phenyl]-3-(2-methylpropyl)urea]: 1800 nM; for `CC(C)S(=O)(=O)Cc1cc(N2CCOC[C@@H]2C)nc(-c2ccc(NC(=O)NCCCO)cc2)n1` [Example 60c, 3-(3-hydroxypropyl)-1-[4-[4-[(3S)-3-methylmorpholin-4-yl]-6-(propan-2-ylsulfonylmethyl)pyrimidin-2-yl]phenyl]urea]: 770 nM; for `CC(C)S(=O)(=O)Cc1cc(N2CCOC[C@@H]2C)nc(-c2ccc(NC(=O)Nc3ccc(C(F)(F)F)cc3)cc2)n1` [Example 60d, 1-[4-[4-[(3S)-3-methylmorpholin-4-yl]-6-(propan-2-ylsulfonylmethyl)pyrimidin-2-yl]phenyl]-3-[4-(trifluoromethyl)phenyl]urea]: 590 nM.
As for `CC(C)S(=O)(=O)Cc1cc(N2CCOC[C@@H]2C)nc(-c2ccc(NC(=O)Nc3ccccn3)cc2)n1` [Example 60e, 1-[4-[4-[(3S)-3-methylmorpholin-4-yl]-6-(propan-2-ylsulfonylmethyl)pyrimidin-2-yl]phenyl]-3-pyridin-2-yl-urea], the IC50 stood at 1300 nM.
As for `CC(C)NC(=O)Nc1ccc(-c2nc(CS(=O)(=O)C(C)C)cc(N3CCOC[C@@H]3C)n2)cc1` [Example 60f, 1-[4-[4-[(3S)-3-methylmorpholin-4-yl]-6-(propan-2-ylsulfonylmethyl)pyrimidin-2-yl]phenyl]-3-propan-2-yl-urea], the half-inhibitory concentration (IC50) is 870 nM.
For `CC(C)S(=O)(=O)Cc1cc(N2CCOC[C@@H]2C)nc(-c2ccc(NC(=O)NC(C)(C)CO)cc2)n1` [Example 60g, 3-(1-hydroxy-2-methyl-propan-2-yl)-1-[4-[4-[(3S)-3-methylmorpholin-4-yl]-6-(propan-2-ylsulfonylmethyl)pyrimidin-2-yl]phenyl]urea] the value was 220 nM; for `CC(C)S(=O)(=O)Cc1cc(N2CCOC[C@@H]2C)nc(-c2ccc(NC(=O)Nc3cnn(C)c3)cc2)n1` [Example 60h, 1-[4-[4-[(3S)-3-methylmorpholin-4-yl]-6-(propan-2-ylsulfonylmethyl)pyrimidin-2-yl]phenyl]-3-(1-methylpyrazol-4-yl)urea], 1900 nM.
Turning to `CNC(=O)Nc1ccc(-c2nc(N3CCOC[C@@H]3C)cc(C(C)(C)S(=O)(=O)C(C)C)n2)cc1` [Example 60i, 3-methyl-1-[4-[4-[(3S)-3-methylmorpholin-4-yl]-6-(2-propan-2-ylsulfonylpropan-2-yl)pyrimidin-2-yl]phenyl]urea], the IC50 was found to be 120 nM.
The same measure for `CCNC(=O)Nc1ccc(-c2nc(N3CCOC[C@@H]3C)cc(C(C)(C)S(=O)(=O)C(C)C)n2)cc1` [Example 60j, 1-ethyl-3-[4-[4-[(3S)-3-methylmorpholin-4-yl]-6-(2-propan-2-ylsulfonylpropan-2-yl)pyrimidin-2-yl]phenyl]urea]: 190 nM; for `CC(C)NC(=O)Nc1ccc(-c2nc(N3CCOC[C@@H]3C)cc(C(C)(C)S(=O)(=O)C(C)C)n2)cc1` [Example 60k, 1-[4-[4-[(3S)-3-methylmorpholin-4-yl]-6-(2-propan-2-ylsulfonyl-propan-2-yl)pyrimidin-2-yl]phenyl]-3-propan-2-yl-urea]: 180 nM; for `CC(C)S(=O)(=O)C(C)(C)c1cc(N2CCOC[C@@H]2C)nc(-c2ccc(NC(=O)NC3CC3)cc2)n1` [Example 60l, 3-cyclopropyl-1-[4-[4-[(3S)-3-methylmorpholin-4-yl]-6-(2-propan-2-ylsulfonylpropan-2-yl)pyrimidin-2-yl]phenyl]urea]: 64 nM.
The same measure for `CC(C)S(=O)(=O)C(C)(C)c1cc(N2CCOC[C@@H]2C)nc(-c2ccc(NC(=O)NC3CCC3)cc2)n1` [Example 60m, 3-cyclobutyl-1-[4-[4-[(3S)-3-methylmorpholin-4-yl]-6-(2-propan-2-ylsulfonylpropan-2-yl)pyrimidin-2-yl]phenyl]urea]: 59 nM; for `CC(C)S(=O)(=O)C(C)(C)c1cc(N2CCOC[C@@H]2C)nc(-c2ccc(NC(=O)NCCO)cc2)n1` [Example 60n, 3-(2-hydroxyethyl)-1-[4-[4-[(3S)-3-methylmorpholin-4-yl]-6-(2-propan-2-ylsulfonylpropan-2-yl)pyrimidin-2-yl]phenyl]urea]: 150 nM; for `CC(C)S(=O)(=O)C(C)(C)c1cc(N2CCOC[C@@H]2C)nc(-c2ccc(NC(=O)NC(C)(C)CO)cc2)n1` [Example 60o, 3-(1-hydroxy-2-methyl-propan-2-yl)-1-[4-[4-[(3S)-3-methylmorpholin-4-yl]-6-(2-propan-2-ylsulfonylpropan-2-yl)pyrimidin-2-yl]phenyl]urea]: 86 nM.
The same measure for `CC(C)S(=O)(=O)C(C)(C)c1cc(N2CCOC[C@@H]2C)nc(-c2ccc(NC(=O)NCCN(C)C)cc2)n1` [Example 60p, 3-(2-dimethylaminoethyl)-1-[4-[4-[(3S)-3-methylmorpholin-4-yl]-6-(2-propan-2-ylsulfonylpropan-2-yl)pyrimidin-2-yl]phenyl]urea]: 140 nM.
Take `CCCNC(=O)Nc1ccc(-c2nc(N3CCOC[C@@H]3C)cc(C(C)(C)S(=O)(=O)C(C)C)n2)cc1` [Example 60q, 3-[4-[4-[(3S)-3-methylmorpholin-4-yl]-6-(2-propan-2-ylsulfonylpropan-2-yl)pyrimidin-2-yl]phenyl]-1-propyl-urea]: the IC50 is 160 nM.
For `CC(C)CNC(=O)Nc1ccc(-c2nc(N3CCOC[C@@H]3C)cc(C(C)(C)S(=O)(=O)C(C)C)n2)cc1` [Example 60r, 1-[4-[4-[(3S)-3-methylmorpholin-4-yl]-6-(2-propan-2-ylsulfonylpropan-2-yl)pyrimidin-2-yl]phenyl]-3-(2-methylpropyl)urea] the value was 210 nM.
The same measure for `CC(C)S(=O)(=O)C(C)(C)c1cc(N2CCOC[C@@H]2C)nc(-c2ccc(NC(=O)NCCCO)cc2)n1` [Example 60s, 3-(3-hydroxypropyl)-1-[4-[4-[(3S)-3-methylmorpholin-4-yl]-6-(2-propan-2-ylsulfonylpropan-2-yl)pyrimidin-2-yl]phenyl]urea]: 300 nM; for `CC(C)S(=O)(=O)C(C)(C)c1cc(N2CCOC[C@@H]2C)nc(-c2ccc(NC(=O)Nc3ccc(C(F)(F)F)cc3)cc2)n1` [Example 60t, 1-[4-[4-[(3S)-3-methylmorpholin-4-yl]-6-(2-propan-2-ylsulfonylpropan-2-yl)pyrimidin-2-yl]phenyl]-3-[4-(trifluoromethyl)phenyl]urea]: 1400 nM; for `CC(C)S(=O)(=O)C(C)(C)c1cc(N2CCOC[C@@H]2C)nc(-c2ccc(NC(=O)Nc3cnn(C)c3)cc2)n1` [Example 60v, 1-[4-[4-[(3S)-3-methylmorpholin-4-yl]-6-(2-propan-2-ylsulfonylpropan-2-yl)pyrimidin-2-yl]phenyl]-3-(1-methylpyrazol-4-yl)urea]: 270 nM.
For `C[C@H]1COCCN1c1cc(CS(=O)(=O)c2ccc(F)cc2)nc(-c2ccc(NC(=O)NC3CCC3)cc2)n1` [Example 61, 3-Cyclobutyl-1-[4-[4-[(4-fluorophenyl)sulfonylmethyl]-6-[(3S)-3-methylmorpholin-4-yl]pyrimidin-2-yl]phenyl]urea] the value was 330 nM; for `CCNC(=O)Nc1ccc(-c2nc(CS(=O)(=O)c3ccc(F)cc3)cc(N3CCOC[C@@H]3C)n2)cc1` [Example 61a, 1-ethyl-3-[4-[4-[(4-fluorophenyl)sulfonylmethyl]-6-[(3S)-3-methylmorpholin-4-yl]pyrimidin-2-yl]phenyl]urea], 750 nM.

The term IC50 denotes the midpoint of a concentration-inhibition curve.

Source of the values: patent publication US7750003B2, “Compounds-943” (AstraZeneca AB, priority 2006, dated 2010).
